Measurements taken from patent publication US7671054B1, “Reverse-turn mimetics and method relating thereto” (Choongwae Pharma Corporation, priority 2001, dated 2010).
Like-named read-outs stand apart in the source and are kept apart here.

Assays:
SW480 cells = test: Growth inhibition assay (MTS); format: cell-based; settings: Homo sapiens, SW480 cells, 48 hours treatment, MTS, read-out: Growth Inhibition (GI50, uM) SW480
Outline: (§1)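 Cells seeded at 10^4 per well, grown 24 h at 37° C, then exposed to compound at various concentrations for 48 hours. MTS added for 2 h; absorbance at 490 nm gave viability, with cytotoxicity calculated per concentration against pre-treatment reading.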

HCT116 cells = test: Growth inhibition assay (MTS); format: cell-based; settings: Homo sapiens, HCT116 cells, 48 hours treatment, MTS, read-out: Growth Inhibition (GI50, uM) HCT116
Outline: as §1

GI50 (SW480 cells; SW480, 48 h, Table 5)	GI50 (HCT116 cells; HCT-116, 48 h, Table 5)	Structure (SMILES)	further results
14.6 ± 1.4 µM	7.5 ± 1 µM	CN(C)Cc1cccc(CN2C[C@H]3N(C(=O)CN(C)N3C(=O)NCc3ccccc3)[C@@H](Cc3ccc(O)cc3)C2=O)c1 [Compound 89]	–
12 ± 0.7 µM	19 ± 1.6 µM	CN1CC(=O)N2[C@@H](Cc3ccc(O)cc3)C(=O)N(Cc3ccc4cn[nH]c4c3)C[C@@H]2N1C(=O)NCc1ccccc1 [Compound 64]	–
3.1 ± 0.3 µM	5.1 ± 0.3 µM	C[C@H]1[C@H]2N(C(=O)CN(C)N2C(=O)NCc2ccccc2)[C@@H](Cc2ccc(O)cc2)C(=O)N1Cc1ccc(Cl)c(N(C)C)c1 [Compound 57]	–
4.7 ± 0.5 µM	5 ± 0.7 µM	CN1CC(=O)N2[C@@H](Cc3ccc(O)cc3)C(=O)N(Cc3cccc4c3cnn4C)C[C@@H]2N1C(=O)NCc1ccccc1 [Compound 35]	–
22.8 ± 6.5 µM	19.7 ± 3.3 µM	CC(C)N(C)c1cc([C@@H](C)N2C[C@H]3N(C(=O)CN(C)N3C(=O)NCc3ccccc3)[C@@H](Cc3ccc(O)cc3)C2=O)ccc1F [Compound 39]	–
–	–	C=CCN1CC(=O)N2[C@@H](Cc3ccc(OP(=O)(O)O)cc3)C(=O)N(Cc3ccc(Cl)c(N(C)C)c3)C[C@@H]2N1C(=O)NCc1ccccc1 [Compound 131]	GI50 (SW480 cells; Table 5): 2.3 ± 0.1 µM; GI50 (HCT116 cells; HCT-116, Table 5): 1.7 ± 0.5 µM
5.1 ± 0.5 µM	4.7 ± 0.3 µM	C#CCN1CC(=O)N2[C@@H](Cc3ccc(O)cc3)C(=O)N(Cc3ccc(Cl)c(N4CCOCC4)c3)C[C@@H]2N1C(=O)NCc1ccccc1 [Compound 112]	–
1.4 ± 0.4 µM	0.8 ± 0.7 µM	C=CCN1CC(=O)N2[C@@H](Cc3ccc(O)cc3)C(=O)N(Cc3ccccc3)C[C@@H]2N1C(=O)NCc1ccccc1 [Compound 134]	–
4.6 ± 0.5 µM	3.6 ± 0.7 µM	C#CCn1cc2c(CN3C[C@H]4N(C(=O)CN(C)N4C(=O)NCc4ccccc4)[C@@H](Cc4ccc(O)cc4)C3=O)cccc2n1 [Compound 71]	–
1.12 µM	0.74 µM	CN1CC(=O)N2[C@@H](Cc3ccc(O)cc3)C(=O)N(Cc3cc(F)c(F)c(F)c3)C[C@@H]2N1C(=O)NCc1ccccc1 [Compound 17]	–
–	–	CN1CC(=O)N2[C@@H](Cc3ccc(O)cc3)C(=O)N(Cc3ccc(F)cc3)C[C@@H]2N1C(=O)NCc1ccccc1 [Compound 12]	GI50 (SW480 cells; Table 5): 2.54 µM; GI50 (HCT116 cells; HCT-116, Table 5): 1.48 µM
6.2 µM	12.2 µM	CN1CC(=O)N2[C@@H](Cc3ccc(O)cc3)C(=O)N(Cc3cccc4[nH]ncc34)C[C@@H]2N1C(=O)NCc1ccccc1 [Compound 47]	–
2.2 ± 0.2 µM	3.7 ± 0.3 µM	CN1CC(=O)N2[C@@H](Cc3ccc(O)cc3)C(=O)N(Cc3cccc4cnn(Cc5ccc(N)cc5)c34)C[C@@H]2N1C(=O)NCc1ccccc1 [Compound 78]	–
26.3 ± 2.5 µM	23.3 ± 1.2 µM	C=CCN1CC(=O)N2[C@@H](Cc3ccc(O)cc3)C(=O)N([C@@H](C)c3ccc(Cl)c4cccnc34)C[C@@H]2N1C(=O)NCc1ccccc1 [Compound 155]	–
1.1 ± 0.3 µM	0.7 ± 0.07 µM	CCCN1CC(=O)N2[C@@H](Cc3ccc(O)cc3)C(=O)N(Cc3cccc4cccnc34)C[C@@H]2N1C(=O)NCc1ccccc1 [Compound 94]	–
–	–	C=CCN1CC(=O)N2[C@@H](Cc3ccc(OP(=O)(O)O)cc3)C(=O)N(Cc3cccc4scnc34)C[C@@H]2N1C(=O)NCc1ccccc1 [Compound 167]	GI50 (SW480 cells; Table 5): 0.3 ± 0.02 µM; GI50 (HCT116 cells; HCT-116, Table 5): 0.2 ± 0.02 µM
11.3 ± 6 µM	3.6 ± 0.3 µM	CN1CC(=O)N2[C@@H](Cc3ccc(O)cc3)C(=O)N(Cc3ccc4cnn(Cc5ccccc5N)c4c3)C[C@@H]2N1C(=O)NCc1ccccc1 [Compound 61]	–
–	–	C=CC[C@@H]1CC(=O)N2[C@H](CN(Cc3cccc4cn[nH]c34)C(=O)[C@@H]2Cc2ccc(O)cc2)N1C(=O)NCc1ccccc1	GI50 (SW480 cells; SW480, 48 h, Example 21): 2 µM; GI50 (HCT116 cells; HCT-116, 48 h, Example 21): 2.3 µM
3.2 ± 0.4 µM	3.1 ± 0.8 µM	[2H]C([2H])(c1ccc(O)cc1)[C@H]1C(=O)N(Cc2cccc3ccccc23)C[C@H]2N1C(=O)CN(C)N2C(=O)NCc1ccccc1 [Compound 135]	–
3.8 ± 0.4 µM	4.2 ± 0.5 µM	CN1CC(=O)N2[C@@H](Cc3ccc(NC=O)cc3)C(=O)N(Cc3cccc4ccccc34)C[C@@H]2N1C(=O)NCc1ccccc1 [Compound 44]	–
–	–	CN1CC(=O)N2[C@@H](Cc3ccc(O)cc3)C(=O)N(Cc3cccc(F)c3)C[C@@H]2N1C(=O)NCc1ccccc1 [Compound 11]	GI50 (SW480 cells; Table 5): 1.97 µM; GI50 (HCT116 cells; HCT-116, Table 5): 1.3 µM
2.7 ± 0.8 µM	2.1 ± 0.2 µM	C=CCN1CC(=O)N2[C@@H](Cc3ccc(O)cc3)C(=O)N(Cc3ccc(Cl)c(N4CCOCC4)c3)C[C@@H]2N1C(=O)NCc1ccccc1 [Compound 111]	–
2.9 ± 0.5 µM	3.1 ± 0.3 µM	C=CCN1CC(=O)N2[C@@H](Cc3ccc(NC=O)cc3)C(=O)N(Cc3ccc(F)cc3F)C[C@@H]2N1C(=O)NCc1ccccc1 [Compound 129]	–

GI50 (SW480 cells; SW480, 48 h, Table 5)	GI50 (HCT116 cells; HCT-116, 48 h, Table 5)	Structure (SMILES)	further results
1.8 ± 0.2 µM	2.6 ± 0.1 µM	CCCN1CC(=O)N2[C@@H](Cc3ccc(O)cc3)C(=O)N(Cc3ccc(Cl)c4cccnc34)C[C@@H]2N1C(=O)NCc1ccccc1 [Compound 120]	–
–	–	C=CCN1CC(=O)N2[C@@H](Cc3ccc(OP(=O)(O)O)cc3)C(=O)N(Cc3ccc(OC)cc3)C[C@@H]2N1C(=O)NCc1ccccc1 [Compound 179]	GI50 (SW480 cells; Table 5): 1.5 ± 0.1 µM; GI50 (HCT116 cells; HCT-116, Table 5): 1.6 ± 0.1 µM
1.6 ± 0.2 µM	1.8 ± 0.2 µM	C=CCN1CC(=O)N2[C@@H](Cc3ccc(O)cc3)C(=O)N(Cc3cccc4sc(N5CCCCC5)nc34)C[C@@H]2N1C(=O)NCc1ccccc1 [Compound 188]	–
1 ± 0.2 µM	1.2 ± 0.1 µM	C=CCN1CC(=O)N2[C@@H](Cc3ccc(O)cc3)C(=O)N(Cc3ccc4c(c3)OCCO4)C[C@@H]2N1C(=O)NCc1ccccc1 [Compound 157]	–
11.7 µM	1.13 µM	CN(C)c1cc(F)ccc1CN1C[C@H]2N(C(=O)CN(C)N2C(=O)NCc2ccccc2)[C@@H](Cc2ccc(O)cc2)C1=O [Compound 27]	–
16 µM	7.93 µM	Cc1ccc(N(C)C)c(CN2C[C@H]3N(C(=O)CN(C)N3C(=O)NCc3ccccc3)[C@@H](Cc3ccc(O)cc3)C2=O)c1 [Compound 29]	–
19.4 ± 3 µM	11.6 ± 3 µM	C=CCN1CC(=O)N2[C@@H](Cc3ccc(O)cc3)C(=O)N(Cc3cc(N(C)C(C)C)cc(C(F)(F)F)c3)C[C@@H]2N1C(=O)NCc1ccccc1 [Compound 126]	–
0.7 ± 0.2 µM	0.7 ± 0.2 µM	C=CCN1CC(=O)N2[C@@H](CN([C@H](C)c3ccccc3)C(=O)[C@@H]2Cc2ccc(O)cc2)N1C(=O)NCc1ccccc1 [Compound 154]	–
24.9 ± 2.2 µM	37.9 ± 5.7 µM	C=CCN1CC(=O)N2[C@@H](Cc3ccc(O)cc3)C(=O)N(Cc3ccc4[nH]nnc4c3)C[C@@H]2N1C(=O)NCc1ccccc1 [Compound 108]	–
6.4 ± 0.5 µM	5.8 ± 0.4 µM	CN1CC(=O)N2[C@@H](Cc3ccc(O)cc3)C(=O)N(Cc3cccc(N4CCCC4)c3)C[C@@H]2N1C(=O)NCc1ccccc1 [Compound 40]	–
1.7 ± 0.1 µM	2 ± 0.2 µM	C=CCN1CC(=O)N2[C@@H](Cc3ccc(O)c(F)c3)C(=O)N(Cc3cccc4scnc34)C[C@@H]2N1C(=O)NCc1ccccc1 [Compound 186]	–
1.1 ± 0.07 µM	0.9 ± 0.1 µM	C=CCN1CC(=O)N2[C@@H](Cc3ccc(O)cc3)C(=O)N(Cc3ccc(Cl)c(N(C)C)c3)C[C@@H]2N1C(=O)NCc1ccccc1 [Compound 101]	–
12.9 ± 1 µM	14.9 ± 2.2 µM	O=C1[C@H](Cc2ccc(O)cc2)N2C(=O)CON(C(=O)NCc3ccccc3)[C@H]2CN1Cc1cccc2cccnc12 [Compound 92]	–
7.3 µM	4.7 µM	CN(Cc1ccccc1N)c1cccc(CN2C[C@H]3N(C(=O)CN(C)N3C(=O)NCc3ccccc3)[C@@H](Cc3ccc(O)cc3)C2=O)c1 [Compound 65]	–
0.6 ± 0.2 µM	0.5 ± 0.1 µM	C#CCN1CC(=O)N2[C@@H](Cc3ccc(O)cc3)C(=O)N(Cc3cccc4cccnc34)C[C@@H]2N1C(=O)NCc1ccccc1 [Compound 87]	–
22.8 ± 0.9 µM	24.4 ± 1.9 µM	C[C@H](c1ccc(F)cc1F)N1C[C@H]2N(C(=O)CN(C)N2C(=O)NCc2ccccc2)[C@@H](Cc2ccc(O)cc2)C1=O [Compound 165]	–
21.9 ± 2.3 µM	12.7 ± 1.3 µM	CN(c1cccc(CN2C[C@H]3N(C(=O)CN(C)N3C(=O)NCc3ccccc3)[C@@H](Cc3ccc(O)cc3)C2=O)c1)C1CC1 [Compound 36]	–
6.58 µM	3.26 µM	CN(C)c1ccccc1CN1C[C@H]2N(C(=O)CN(C)N2C(=O)NCc2ccccc2)[C@@H](Cc2ccc(O)cc2)C1=O [Compound 22]	–
1.6 ± 0.1 µM	1.6 ± 0.1 µM	C#CCN1CC(=O)N2[C@@H](Cc3ccc(O)cc3)C(=O)N(Cc3ccc4c(c3)OCCO4)C[C@@H]2N1C(=O)NCc1ccccc1 [Compound 107]	–
21.2 ± 1.5 µM	23.2 ± 2.8 µM	C#CCN1CC(=O)N2[C@@H](Cc3ccc(O)cc3)C(=O)N(Cc3ccc4c(c3)OCCN4C)C[C@@H]2N1C(=O)NCc1ccccc1 [Compound 118]	–
8.1 ± 0.7 µM	5 ± 1 µM	CN(C1CC1)C1CC=CC=C1CN1C[C@H]2N(C(=O)CN(C)N2C(=O)NCc2ccccc2)[C@@H](Cc2ccc(O)cc2)C1=O (stereo partly shown) [Compound 31]	–
3 ± 0.4 µM	2.5 ± 0.1 µM	C=CCN1CC(=O)N2[C@@H](Cc3ccc(O)cc3)C(=O)N(Cc3cccc4c3OCC4)C[C@@H]2N1C(=O)NCc1ccccc1 [Compound 175]	–
1 ± 0.1 µM	1.2 ± 0.1 µM	C=CCN1CC(=O)N2[C@@H](Cc3ccc(O)cc3)C(=O)N(Cc3cccc4sc(N5CCOCC5)nc34)C[C@@H]2N1C(=O)NCc1ccccc1 [Compound 189]	–

Structure (SMILES)	GI50 (SW480 cells; SW480, 48 h, Table 5)	GI50 (HCT116 cells; HCT-116, 48 h, Table 5)	further results
CN1CC(=O)N2[C@@H](Cc3ccc(O)cc3)C(=O)N(Cc3ccccc3C(F)(F)F)C[C@@H]2N1C(=O)NCc1ccccc1 [Compound 7]	1.22 µM	0.73 µM	–
